The results in this text go back to patent US20240277693A1, “A PHARMACEUTICAL PRODUCT CONTAINING TASQUINIMOD AND A METHOD FOR ASSESSING THE PURITY OF SAID PRODUCT” (ACTIVE BIOTECH AB, priority 2021, published 2024).

Holding throughout (format): physicochemical
Data set [1] is described as follows: Drug product stability studies (general observations). The text has this: In a drug product, compound I is formed with compound II from hydrolysis of tasquinimod. […] Compound II is further decarboxylated to form compound III.
Compound III is the decarboxylated species formed from the degradation of compound II.
The mechanism for formation of compound IV in a drug product is unknown.

Data set [2] in a line: Assessment of capsules after manufacture: amount of tasquinimod and of decomposition products. To be noted: 0 months (after manufacturing). The source says:
(§1) In some embodiments, the method disclosed herein comprises storing (keeping) a sample of the pharmaceutical product for a period of time, preferably under selected conditions of temperature and humidity. The amount (or concentration) of tasquinimod and of at least one of compounds I, II, III and IV in the sample may preferably be determined at the beginning or before the storage period and at the end of the storage period. The selected storage conditions may include a temperature in the range of, for example, 20° C. to 40° C., and a relative humidity in the surrounding atmosphere in the range of, for example, 30% to 75%; e.g. 25° C. and 60% RH, or 30° C. and 65% RH, or 35° C. and 70% RH, or 40° C. and 75% RH. The storage period may extend over a time period in the range of, for example, several weeks to several years. For example, the stability testing period (“storage period”) may be 2 weeks, 3 weeks, 1 month, 2 months, 3 months, 4 months, 5 months, 6 months, 9 months, 1 year, 18 months, 2 years, 3 years, 4 years or even 5 years or longer. A shorter storage period may be selected by use of higher storage temperature and/or higher relative humidity (RH). The total amount of a tasquinimod decomposition product in the sample at the end of the storage period may be determined by, for example, HPLC.
The obtained batch of capsules was assessed by determining the amount of tasquinimod and the amount of compound III in a sample of the capsules. The selected criterion for approving the batch was that the capsules of the sample contain not more than 1.0% w/w of compound III relative to the amount of tasquinimod. […] Therefore, according to the selected criterion for approval, the batch of capsules was determined to be suitable for distribution.
The obtained batch of capsules was assessed by determining the amount of tasquinimod and the amount of compounds I, II, III and IV in a sample of the capsules. The selected criterion for approving the batch was that the capsules of the sample contain not more than in total 5% w/w of compounds I-IV relative to the amount of tasquinimod. […] Therefore, according to the selected criterion for approval, the batch of capsules was determined to be suitable for distribution.
(§2) The obtained batch of capsules was subjected to multiple assessments, viz. a first assessment comprising determining the amount of tasquinimod and the amount of compounds I, II, III and IV in a sample of the capsules directly after manufacturing, whereby the selected criterion for approving the batch for distribution was that the capsules of the sample, in a water impermeable blister pack, contain not more than in total 5% w/w of compounds I-IV relative to the amount of tasquinimod, followed by eight further, independent assessments, by determining the amount of tasquinimod and the amount of each one of compounds I, II, III and IV in a sample of the capsules at the end of a period of stability testing (by keeping the capsules, in a water impermeable blister pack, at 25° C./60% RH) of 3, 6, 9, 12, 18, 24, 36 and 48 months, respectively, whereby each time the criterion for approving the batch was that the capsules of the sample, at the end of each period of stability testing, contain a total amount of compounds I-IV of not more than 5.0% w/w, relative to the amount of tasquinimod in the capsules.

The nature of data set [3]: Stability testing of capsules at 25° C./60% RH in water impermeable blister pack.
Text: as §1
The batch of capsules manufactured in Example 19 was assessed by determining the amount of tasquinimod and the amount of each one of compounds I, II, III and IV in a sample of the capsules at the end of a 3-month stability testing, whereby the criterion for approving the batch was that the capsules of the sample, at the end of the 3-month stability testing, contain a total amount of compounds I-IV of not more than 5.0% w/w, relative to the amount of tasquinimod in the capsules. The stability testing consisted of keeping the capsules, in a water impermeable blister pack, at 25° C./60% RH. At the end of the stability testing, the capsules contained 0.06% w/w of compound I, less than 0.05% w/w of compound II, 0.10% of compound III and less than 0.05% w/w of compound IV, relative to the amount of tasquinimod (determined to be 0.246 mg/capsule), viz. in total less than 0.26% w/w of compounds I-IV relative to the amount of tasquinimod. Therefore, according to the selected criterion for approval, the batch of capsules was determined to be suitable for distribution.
as §2

Some results are limits rather than exact numbers.

On to `COc1cccc2c1c(O)c(C(=O)O)c(=O)n2C` [Compound II, 4-hydroxy-5-methoxy-1-methyl-2-oxo-1,2-dihydroquinoline-3-carboxylic acid], for which the “change of the amount of the compound in tasquinimod drug product on storage” value in data set [1] is “slight increase”. Further, the “Decomposition products (% w/w), relative to the amount of tasquinimod in capsule” value in data set [2] (0.5 mg capsules of Example 28) is reported as under 0.05 % w/w; in data set [2] (1.0 mg capsules of Example 29), under 0.05 % w/w; in data set [3] (0.5 mg capsules of Example 28, 3 months), under 0.05 % w/w; in data set [3] (0.5 mg capsules of Example 28, 6 months) it was under 0.05 % w/w; in data set [3] (0.5 mg capsules of Example 28, 9 months), under 0.05 % w/w; in data set [3] (0.5 mg capsules of Example 28, 12 months) it was under 0.05 % w/w. The “Decomposition products (% w/w), relative to the amount of tasquinimod in capsule” value in data set [3] (0.5 mg capsules of Example 28, 18 months) is given as under 0.05 % w/w; in data set [3] (0.5 mg capsules of Example 28, 24 months), under 0.05 % w/w; in data set [3] (0.5 mg capsules of Example 28, 36 months) it was under 0.05 % w/w; in data set [3] (0.5 mg capsules of Example 28, 48 months), under 0.05 % w/w; in data set [3] (1.0 mg capsules of Example 29, 3 months), under 0.05 % w/w; in data set [3] (1.0 mg capsules of Example 29, 6 months) it was under 0.05 % w/w. Moreover, the “Decomposition products (% w/w), relative to the amount of tasquinimod in capsule” value in data set [3] (1.0 mg capsules of Example 29, 9 months) was 0.06 % w/w; in data set [3] (1.0 mg capsules of Example 29, 12 months), 0.06 % w/w; in data set [3] (1.0 mg capsules of Example 29, 18 months) it was 0.06 % w/w; in data set [3] (1.0 mg capsules of Example 29, 24 months) it was 0.06 % w/w; in data set [3] (1.0 mg capsules of Example 29, 36 months), 0.07 % w/w; in data set [3] (1.0 mg capsules of Example 29, 48 months), 0.08 % w/w. Further, the “amount of decomposition product (each of compounds I-IV) in capsules, relative to the amount of tasquinimod” value in data set [3] (0.25 mg capsules of Example 19, 18 months) is listed as 0.05 % w/w; in data set [3] (0.25 mg capsules of Example 19, 24 months), 0.05 % w/w; in data set [3] (0.25 mg capsules of Example 19, 36 months) it was 0.06 % w/w; in data set [3] (0.25 mg capsules of Example 19, 48 months), 0.06 % w/w.
